Like-named read-outs stand apart in the source and are kept apart here. Marks after values point to notes of the source that are not given here.
Legend:
Type in all cases: in vivo
[1] = system: Alternaria solani; assay: Test H: tomato early blight, preventive spray on tomato seedlings, disease rating
How it was run: (§1)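 Tomato seedlings sprayed to run-off, as a preventive treatment, with compound suspended in acetone/water (50/50) containing 250 ppm Trem 014 surfactant; 200 ppm equals 500 g/ha. Disease then rated. Values are at 200 ppm unless marked * (40 ppm) or ** (50 ppm).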

[2] = system: Erysiphe graminis f. sp. tritici; assay: Test A: wheat powdery mildew, preventive spray on wheat seedlings, disease rating
How it was run: (§2)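 Compounds were dissolved in acetone (3% of final volume), then suspended in 50/50 acetone/water with 250 ppm polyhydric alcohol ester surfactant and sprayed to run-off on wheat seedlings. Unless marked otherwise, values are at 200 ppm (equivalent to 500 g/ha); some are at 40 or 50 ppm.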

[3] = system: Fusarium graminearum; conditions: wheat head scab
[4] = system: Plasmopara viticola; assay: Test K: grape downy mildew, spray on grape seedlings after inoculation, disease rating
Excerpt: The test compounds were first dissolved in acetone in an amount equal to 3% of the final volume and then suspended at the desired concentration (in ppm) in acetone and purified water (50/50 mix) containing 250 ppm of the surfactant Trem® 014 (polyhydric alcohol esters). The resulting test suspensions were then used in Tests A-L. Spraying a 200 ppm test suspension to the point of run-off on the test plants was the equivalent of an application rate of 500 g/ha. Grape seedlings were inoculated with a spore suspension of Plasmopara viticola (the causal agent of grape downy mildew) and incubated in a saturated atmosphere at 20° C. for 24 h. After a short drying period, the test suspension was sprayed to the point of run-off on the grape seedlings and then moved to a growth chamber at 20° C. for 6 days, after which the test units were placed back into a saturated atmosphere at 20° C. for 24 h. Upon removal, disease ratings were made. […] A dash (-) indicates no test results. All results are for 200 ppm except where followed by an “*”, which indicates 40 ppm or “**”, which indicates 50 ppm.

[5] = system: Puccinia recondita f. sp. tritici; assay: Test B: wheat leaf rust, preventive spray on wheat seedlings, disease rating
How it was run: as §2

[6] = system: Septoria nodorum; assay: Test C: wheat glume blotch, preventive spray on wheat seedlings, disease rating
How it was run: as §2

[7] = system: Botrytis cinerea; assay: Test F: tomato Botrytis, preventive spray on tomato seedlings, disease rating
How it was run: as §1

[8] = system: Phytophthora infestans; conditions: tomato late blight
[9] = system: Rhizoctonia oryzae; assay: Test I: turf brown patch, preventive spray on creeping bent grass seedlings, disease rating
Excerpt: The test compounds were first dissolved in acetone in an amount equal to 3% of the final volume and then suspended at the desired concentration (in ppm) in acetone and purified water (50/50 mix) containing 250 ppm of the surfactant Trem® 014 (polyhydric alcohol esters). The resulting test suspensions were then used in Tests A-L. Spraying a 200 ppm test suspension to the point of run-off on the test plants was the equivalent of an application rate of 500 g/ha. The test suspension was sprayed to the point of run-off on creeping bent grass seedlings. […] A dash (-) indicates no test results. All results are for 200 ppm except where followed by an “*”, which indicates 40 ppm or “**”, which indicates 50 ppm.

[10] = system: Pythium aphanidermatum; assay: Test L: bluegrass pythium blight, preventive spray on bluegrass seedlings, disease rating
Excerpt: The test compounds were first dissolved in acetone in an amount equal to 3% of the final volume and then suspended at the desired concentration (in ppm) in acetone and purified water (50/50 mix) containing 250 ppm of the surfactant Trem® 014 (polyhydric alcohol esters). The resulting test suspensions were then used in Tests A-L. Spraying a 200 ppm test suspension to the point of run-off on the test plants was the equivalent of an application rate of 500 g/ha. The test suspension was sprayed to the point of run-off on bluegrass seedlings. […] A dash (-) indicates no test results. All results are for 200 ppm except where followed by an “*”, which indicates 40 ppm or “**”, which indicates 50 ppm.

[11] = system: Septoria tritici; assay: Test D: wheat leaf blotch, preventive spray on wheat seedlings, disease rating
How it was run: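 Wheat seedlings sprayed to run-off with compound in acetone/water containing 250 ppm Trem 014 (200 ppm ≈ 500 g/ha; some results at 40 or 50 ppm), inoculated next day with Septoria tritici spores. Held 48 h saturated at 24 °C, then 19 days at 20 °C before disease rating.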

[12] = 200 ppm, 100 = 100% disease control, 0 = no control relative to controls
[13] = 40 ppm (*), 100 = 100% disease control, 0 = no control relative to controls

| SMILES | Percentage Disease Control, Test H ([1]; 200 ppm) [%] | Percentage Disease Control, Test A ([2]; 40 ppm (*)) | Percentage Disease Control, Test E ([3]; 40 ppm (*)) | Percentage Disease Control, Test B ([5]; 40 ppm (*)) | Percentage Disease Control, Test C ([6]; 40 ppm (*)) | Percentage Disease Control, Test F ([7]; 200 ppm) [%] | Percentage Disease Control, Test C ([6]; 200 ppm) [%] | Percentage Disease Control, Test D ([11]; 40 ppm (*)) | other results |
| --- | --- | --- | --- | --- | --- | --- | --- | --- | --- |
| C#CCCCn1ccc(-c2ccc(Cl)c(CNC(=O)OC)c2)n1 [Cmpd 24] | 0 | 96* % | 96* % | 99* % | 99* % | 0 | – | – | Percentage Disease Control, Test K ([4]; 200 ppm): 83%; Percentage Disease Control, Test J ([8]; 40 ppm (*)): 0* %; Percentage Disease Control, Test I ([9]; 200 ppm): 0% |
| COC(=O)NCc1cc(-c2ccn(C(C)[Si](C)(C)C)n2)ccc1Cl (centres unmarked) [Cmpd 29] | – | – | – | – | – | – | – | – | Percentage Disease Control, Test H ([1]; 50 ppm (**)): 67** %; Percentage Disease Control, Test A ([2]; 50 ppm (**)): 78** %; Percentage Disease Control, Test L ([10]; 50 ppm (**)): 0** %; Percentage Disease Control, Test K ([4]; 50 ppm (**)): 27** %; Percentage Disease Control, Test B ([5]; 50 ppm (**)): 98** %; Percentage Disease Control, Test D ([11]; 50 ppm (**)): 96** %; Percentage Disease Control, Test C ([6]; 50 ppm (**)): 82** %; Percentage Disease Control, Test F ([7]; 50 ppm (**)): 0** %; Percentage Disease Control, Test J ([8]; 50 ppm (**)): 0** %; Percentage Disease Control, Test I ([9]; 50 ppm (**)): 0** % |
| COC(=O)NCc1cc(-c2ccn(CCC=C(C)C)n2)ccc1Cl [Cmpd 30] | 0 | – | – | – | – | 0 | 73 | – | Percentage Disease Control, Test A ([2]; 200 ppm): 83%; Percentage Disease Control, Test L ([10]; 200 ppm): 0%; Percentage Disease Control, Test K ([4]; 200 ppm): 74%; Percentage Disease Control, Test B ([5]; 200 ppm): 98%; Percentage Disease Control, Test D ([11]; 200 ppm): 90%; Percentage Disease Control, Test J ([8]; 200 ppm): 0%; Percentage Disease Control, Test I ([9]; 200 ppm): 0% |
| C#CCCCn1nc(-c2ccc(Cl)c(CNC(=O)OC)c2)cc1C [Cmpd 39] | 0 | 99* % | 91* % | 100* % | 99* % | 0 | – | 100* % | – |
| COC(=O)NCc1cc(-c2cc(C)n(CCC[Si](C)(C)C)n2)ccc1Cl [Cmpd 40] | – | 99* % | 13* % | 100* % | 99* % | – | – | 100* % | Percentage Disease Control, Test H ([1]; 40 ppm (*)): 50* %; Percentage Disease Control, Test F ([7]; 40 ppm (*)): 0* % |
| COC(=O)NCc1cc(-c2ccn(CCCC(C)C)n2)ccc1Cl [Cmpd 41] | 0 | – | 99* % | 100* % | – | 0 | 100 | 98* % | Percentage Disease Control, Test A ([2]; 200 ppm): 99% |
| COC(=O)NCc1cc(-c2ccn(CCCc3ccccc3)n2)ccc1Cl [Cmpd 42] | 0 | 98* % | 100* % | 100* % | 100* % | 0 | – | 100* % | – |
| COC(=O)NCc1cc(-c2ccn(CCCF)n2)ccc1Cl [Cmpd 43] | 0 | – | – | – | – | 0 | 95 | – | Percentage Disease Control, Test A ([2]; 200 ppm): 91%; Percentage Disease Control, Test E ([3]; 200 ppm): 94%; Percentage Disease Control, Test B ([5]; 200 ppm): 99%; Percentage Disease Control, Test D ([11]; 200 ppm): 93% |
| COC(=O)NCc1cc(-c2cc(C(F)(F)F)n(CCC[Si](C)(C)C)n2)ccc1Cl [Cmpd 45] | 0 | 99* % | – | 100* % | – | 0 | 100 | 99* % | Percentage Disease Control, Test E ([3]; 200 ppm): 26% |
| CCCCn1ccc(-c2ccc(Cl)c(CNC(=O)OC)c2)n1 [Cmpd 46] | 0 | 94* % | 94* % | 99* % | – | 0 | 99 | 91* % | – |
| COC(=O)NCc1cc(-c2nn(CCC[Si](C)(C)C)cc2Cl)ccc1Cl [Cmpd 47] | 66 | 98* % | – | 100* % | 100* % | 0 | – | 99* % | Percentage Disease Control, Test E ([3]; 200 ppm): 94% |
| COC(=O)NCc1cc(-c2ccn(-c3ccc(C)cn3)n2)ccc1Cl [Cmpd 48] | – | 65* % | 94* % | 100* % | 99* % | – | – | 99* % | Percentage Disease Control, Test H ([1]; 40 ppm (*)): 99* %; Percentage Disease Control, Test F ([7]; 40 ppm (*)): 0* % |
| COC(=O)NCc1cc(-c2ccn(-c3cccc(C)n3)n2)ccc1Cl [Cmpd 49] | – | – | 99* % | 100* % | – | 0 | 99 | 100* % | Percentage Disease Control, Test H ([1]; 40 ppm (*)): 99* %; Percentage Disease Control, Test A ([2]; 200 ppm): 79% |
| COC(=O)NCc1cc(-c2ccn(-c3cccc(C(F)(F)F)c3)n2)ccc1Cl [Cmpd 50] | 55 | 100* % | 97* % | 99* % | 100* % | 0 | – | 100* % | – |
| COC(=O)NCc1cc(-c2cnn(CCC[Si](C)(C)C)c2)ccc1Cl [Cmpd 126] | – | – | – | – | – | – | – | – | Percentage Disease Control, Test H [1, 12]: 0%; Percentage Disease Control, Test A [2, 12]: 95%; Percentage Disease Control, Test E [3, 12]: 0%; Percentage Disease Control, Test B [5, 13]: 98* %; Percentage Disease Control, Test D [11, 13]: 97* %; Percentage Disease Control, Test C [6, 12]: 99%; Percentage Disease Control, Test F [7, 12]: 0% |
